Data reported in article PMC2946983 (Bioorganic & medicinal chemistry, 2010).

Key:
[1] = molecular target: T1, cloned human serotonin 5-HT2C receptor (Homo sapiens, UniProt P28335); experiment: radioligand binding
T1 sequence (P28335 33-458): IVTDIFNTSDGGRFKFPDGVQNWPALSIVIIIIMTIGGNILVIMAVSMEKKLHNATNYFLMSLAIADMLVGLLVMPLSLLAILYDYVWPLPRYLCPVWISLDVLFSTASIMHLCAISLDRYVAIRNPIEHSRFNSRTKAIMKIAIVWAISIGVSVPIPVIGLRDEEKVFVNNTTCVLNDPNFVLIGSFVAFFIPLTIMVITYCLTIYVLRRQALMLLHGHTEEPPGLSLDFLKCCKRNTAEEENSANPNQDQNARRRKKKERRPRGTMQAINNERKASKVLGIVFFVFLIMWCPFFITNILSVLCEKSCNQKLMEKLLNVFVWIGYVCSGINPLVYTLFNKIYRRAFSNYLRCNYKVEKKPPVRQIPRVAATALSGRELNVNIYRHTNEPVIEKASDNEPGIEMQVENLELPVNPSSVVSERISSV

[2] = molecular target: cloned human serotonin 5-HT2A receptor (Homo sapiens, UniProt P28223); experiment: radioligand binding; details: for Binding Affinity (Ki nM) 5-HT2A±SEM: n = 3, ND = not detected at highest concentration tested
Sequence of cloned human serotonin 5-HT2A receptor (P28223 whole entry): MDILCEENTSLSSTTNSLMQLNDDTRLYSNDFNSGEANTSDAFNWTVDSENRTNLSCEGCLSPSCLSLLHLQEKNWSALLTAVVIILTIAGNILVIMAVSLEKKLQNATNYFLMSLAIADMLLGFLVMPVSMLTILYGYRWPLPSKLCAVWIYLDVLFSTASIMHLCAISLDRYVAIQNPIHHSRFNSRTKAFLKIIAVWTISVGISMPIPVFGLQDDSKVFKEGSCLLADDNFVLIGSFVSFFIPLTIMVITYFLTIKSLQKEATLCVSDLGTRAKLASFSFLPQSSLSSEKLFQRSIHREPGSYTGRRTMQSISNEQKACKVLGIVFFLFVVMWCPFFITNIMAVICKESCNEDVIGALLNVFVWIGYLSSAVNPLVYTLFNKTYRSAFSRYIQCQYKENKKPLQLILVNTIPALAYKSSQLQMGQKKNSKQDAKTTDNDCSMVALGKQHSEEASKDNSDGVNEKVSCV

[3] = molecular target: T2, cloned human serotonin 5-HT1A receptor (Homo sapiens, UniProt P08908); experiment: radioligand binding; details: for affinity for 5-HT1A receptor: stated in words
T2 sequence (P08908 1-422): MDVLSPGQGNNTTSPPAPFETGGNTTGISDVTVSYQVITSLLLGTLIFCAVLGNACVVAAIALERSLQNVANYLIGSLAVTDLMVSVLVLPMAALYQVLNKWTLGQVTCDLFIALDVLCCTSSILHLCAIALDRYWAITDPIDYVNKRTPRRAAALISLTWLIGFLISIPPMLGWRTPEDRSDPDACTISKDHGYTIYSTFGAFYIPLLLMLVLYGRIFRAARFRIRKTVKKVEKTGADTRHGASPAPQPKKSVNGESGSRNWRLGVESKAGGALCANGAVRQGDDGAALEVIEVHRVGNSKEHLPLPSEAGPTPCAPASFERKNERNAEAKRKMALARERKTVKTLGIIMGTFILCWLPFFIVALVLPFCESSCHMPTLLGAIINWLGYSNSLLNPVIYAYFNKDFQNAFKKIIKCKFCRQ

[4] = system: human serotonin 5-HT2C receptor; details: isolated natural product; cited from earlier work
[5] = read-out: radioligand affinity KD ± S.D., saturation isotherm

Row | Binding Affinity (Ki nM) 5-HT2A±SEM [2] | affinity for 5-HT1A receptor [3] | Structure (SMILES) | further results
1 | lack of affinity | lack of affinity | CN1C(=N)N(C)/C(=C/c2c[nH]c3cc(Cl)ccc23)C1=O [Compound 14, (E)-5-[(6-chloro-1H-indol-3yl)methylene]-2-imino-1,3-dimethylimidazolidin-4-one] | –
2 | – | – | CN1CN(c2ccccc2)C2(CCN(CCCC(=O)c3ccc(F)cc3)CC2)C1=O [[^3H]methylspiperone, N-Methyl-8-[4-(4-fluorophenyl)-4-oxobutyl]-1-phenyl-1,3,8-triazaspiro-[4.5]decan-4-one, reference compound] | Kd [2, 5]: 0.246 ± 0.042 nM
3 | little or no apparent affinity | little or no apparent affinity | CN1C(=N)NC(=O)/C1=C\c1c[nH]c2cc(Cl)c(Cl)cc12 [Compound 4, (E)-2-amino-5-[(5,6-dichloro-1H-indol-3-yl)methylene]-1-methyl-1H-imidazol-4(5H)-one] | Binding Affinity (Ki nM) 5-HT2C±SEM ([1]; n = 3): little or no apparent affinity
4 | – | – | COc1ccccc1N1CCN(CCN(C(=O)c2ccc(F)cc2)c2ccccn2)CC1 [[^3H]MPPF, 4-(2′-Methoxy)-phenyl-1-[2′-(N-2″-pyridinyl)-p-fluorobenzamido]ethyl-piperazine, reference compound] | Kd [3, 5]: 0.267 ± 0.036 nM
5 | no detectable affinity | no detectable affinity | CN1C(=N)N(C)/C(=C/c2c[nH]c3cc(Cl)c(Cl)cc23)C1=O [Compound 16, (E)-5-[(5,6-dichloro-1H-indol-3-yl)methylene]-2-imino-1,3-dimethylimidazolidin-4-one] | –
6 | – | – | CN1C(=N)NC(=Cc2c[nH]c3cc(Br)ccc23)C1=O [6-bromo-2′-de-N-methylaplysinopsin] | selectivity for 5-HT2C over 5-HT2A receptor [4]: > 40 fold

Row | Structure (SMILES) | Binding Affinity (Ki nM) 5-HT2A±SEM [2] | affinity for 5-HT1A receptor [3] | further results
7 | CN1C(=N)N(C)/C(=C/c2c[nH]c3cc(Br)ccc23)C1=O [Compound 15, 5-(6-bromo-1H-indol-3-ylmethylene)-2-imino-1,3-dimethyl-imidazolidin-4-one] | not detectable | – | Ki Selectivity Ratio 5-HT2A/5-HT2C [1]: >45
